In US20100261711A1, “SELECTIVE ANTICONVULSANT AGENTS AND THEIR USES” (WiSys Technology Foundation, priority 2009, published 2010):
“And” between values parts separate entries of the source, which are not always exact repeats. Equal entries are not always repeated.

How the values were obtained:
[1] = molecular target: T1, GABAA/α1 (α1β3γ2 GABAA receptors) (Homo sapiens, UniProt P14867+P18507); test: Competitive binding assay, [3H]flunitrazepam; conditions: Binding Affinity at GABAA/α1, αxβ3γ2, [3H]flunitrazepam competition
T1 construct: expressed in transfected cells
Procedure: (§1) The GABAA subunit selectivity of several compounds prepared as described above were determined using competitive binding assays. […] Membranes were harvested with a Brandel cell harvester followed by three ice-cold washes onto polyethyleneimine-pretreated (0.3%) Whatman GF/C filters. Filters were dried overnight and then soaked in Ecoscint, a liquid scintillation cocktail (National Diagnostics; Atlanta, Ga.). Bound radioactivity was quantified by liquid scintillation counting. Membrane protein concentrations were determined using an assay kit from Bio-Rad (Hercules, Calif.) with bovine serum albumin as the standard.

[2] = molecular target: T2, GABAA/α2 (α2β3γ2 GABAA receptors) (Homo sapiens, UniProt P18507+P47869); test: Competitive binding assay, [3H]flunitrazepam; conditions: Binding Affinity at GABAA/α2, αxβ3γ2, [3H]flunitrazepam competition
T2 construct: expressed in transfected cells
Procedure: as §1

[3] = molecular target: T3, GABAA/α3 (α3β3γ2 GABAA receptors) (Homo sapiens, UniProt P18507+P34903); test: Competitive binding assay, [3H]flunitrazepam; conditions: Binding Affinity at GABAA/α3, αxβ3γ2, [3H]flunitrazepam competition
T3 construct: expressed in transfected cells
Procedure: as §1

[4] = molecular target: T4, GABAA/α5 (α5β3γ2 GABAA receptors) (Homo sapiens, UniProt P18507+P31644); test: Competitive binding assay, [3H]flunitrazepam; conditions: Binding Affinity at GABAA/α5, αxβ3γ2, [3H]flunitrazepam competition
T4 construct: expressed in transfected cells
Procedure: as §1

MES-induced seizures [5] = test: Maximal electroshock test (MES), mice; type: in vivo; conditions: Mice IP
Procedure: (§2) The benzodiazepine derivative compounds selective for GABAa receptor subunits were tested for the ability to suppress seizures in several standard rat and mouse models of epilepsy. […] The standard models incorporated into anticonvulsant screening include the maximal electroshock test (MES), the subcutaneous Metrazol test (scMet), and evaluations of toxicity (TOX). The data for each condition is presented as a ratio of either the number of animals protected or toxic (loss of locomotor activity) over the number of animals tested at a given time point and dose.
(§3) The MES is a model for generalized tonic-clonic seizures and provides an indication of a compound's ability to prevent seizure spread when all neuronal circuits in the brain are maximally active. These seizures are highly reproducible and are electrophysiologically consistent with human seizures. For all tests based on MES convulsions, 60 Hz of alternating current (50 mA in mice, 150 in rats) is delivered for by corneal electrodes which have been primed with an electrolyte solution containing an anesthetic agent (0.5% tetracaine HCL). For Test 1, mice are tested at various intervals following doses of 30, 100 and 300 mg/kg of test compound given by ip injection of a volume of 0.01 mL/g. In Test 2, rats are tested after a dose of 30 mg/kg (po) in a volume of 0.04 mL/g. Test 8 uses varying doses administered via i.p. injection, again in a volume of 0.04 ml/g. […] In Antiepileptic Drugs, Levy, R. H. M., Meldrum, B. S., Eds.; Raven Press: New York, pp 99-110, 1995b.).

[6] = tested on: Metrazol-induced clonic seizures; test: Subcutaneous Metrazol test (scMet), mice; type: in vivo; conditions: Mice IP
Procedure: as §2
(§4) Subcutaneous injection of the convulsant Metrazol produces clonic seizures in laboratory animals. […] Animals are pretreated with various doses of the test compound (in a similar manner to the MES test, although a dose of 50 mg/kg (po) is the standard for Test 2 scMet). At the previously determined TPE of the test compound, the dose of Metrazol which will induce convulsions in 97% of animals (CD97: 85 mg/kg mice) is injected into a loose fold of skin in the midline of the neck. […] An episode of clonic spasms, approximately 3-5 seconds, of the fore and/or hindlimbs, jaws, or vibrissae is taken as the endpoint.

[7] = tested on: minimal muscular or neurological impairment; test: Toxicity (TOX), rotorod procedure, mice; type: in vivo; conditions: Mice IP
Procedure: as §2
(§5) To assess a compound's undesirable side effects (toxicity), animals are monitored for overt signs of impaired neurological or muscular function. […] When a mouse is placed on a rod that rotates at a speed of 6 rpm, the animal can maintain its equilibrium for long periods of time. The animal is considered toxic if it falls off this rotating rod three times during a 1-min period. In rats, minimal motor deficit is indicated by ataxia, which is manifested by an abnormal, uncoordinated gait. Rats used for evaluating toxicity are examined before the test drug is administered, since individual animals may have peculiarities in gait, equilibrium, placing response, etc., which might be attributed erroneously to the test substance.

MES-induced seizures [8] = test: Maximal electroshock test (MES), rats; type: in vivo; conditions: Rat PO, 50 mg/kg
Procedure: as §2, §3

[9] = tested on: Metrazol-induced clonic seizures; test: Subcutaneous Metrazol test (scMet), rats; type: in vivo; conditions: Rat PO, 50 mg/kg
Procedure: as §2, §4

[10] = tested on: minimal motor deficit (ataxia, abnormal gait); test: Toxicity (TOX), minimal motor deficit, rats; type: in vivo; conditions: Rat PO, 50 mg/kg
Procedure: as §2, §5

6 Hz psychomotor seizure = test: Minimal clonic seizure (6 Hz) test; type: in vivo; conditions: Mice IP, 44 mA, 0.5 Hr
From the text: Like the maximal electroshock (MES) test, the minimal clonic seizure (6 Hz) test is used to assess a compound's efficacy against electrically-induced seizures but uses a lower frequency (6 Hz) and longer duration of stimulation (3 s). Test compounds are pre-administered to mice via ip injection. […] Untreated mice will display seizures characterized by a minimal clonic phase followed by stereotyped, automatistic behaviors described originally as being similar to the aura of human subjects with partial seizures. Animals not displaying this behavior are considered protected (Table 10).

[11] = Plasma levels by LC-MS/MS (tolerance study); type: in vivo, Sprague Dawley rats
Procedure: Immediately after testing, blood was collected via cardiac puncture. Samples were spun down, plasma was collected and acetonitrile added. Samples were frozen at −80° C. and shipped to a commercial laboratory (Enthalpy) for analysis.
Group 3 (8 subjects) was dosed with vehicle only.

C#Cc1ccc2c(c1)C(c1ccccc1)=NCc1c(C(=O)OCC(F)(F)F)ncn1-2 [DM-II-20, Trifluoroethyl 8-acetylenyl-6-phenyl-4H-benzo[f]imidazo[1,5-a][1,4]diaze-pine-3-carboxylate]
Ki [1]: 5720 nM
Ki [2]: 177 nM
Ki [3]: 35.7 nM
Ki [4]: 198 nM
melting point: 188 to 190 °C

C#Cc1ccc2c(c1)C(c1ccccc1)=N[C@@H](C)c1nnc(C)n1-2 [SH-TS-CH3 (143), (4S)-8-Ethynyl-1,4-dimethyl-6-phenyl-4H-benzo[f][1,2,4]triazolo[4,3-a][1,4]diazepine]
Ki [1]: 107 nM
Ki [2]: 50.1 nM
Ki [4]: 8.1 nM
MES, animals protected/tested (MES-induced seizures [5]; 3 mg/kg, 0.5 Hr): 0/4
MES, animals protected/tested (MES-induced seizures [5]; 10 mg/kg, 0.5 Hr): 0/4
MES, animals protected/tested (MES-induced seizures [5]; 30 mg/kg, 0.5 Hr): 1/1
MES, animals protected/tested (MES-induced seizures [5]; 30 mg/kg, 4.0 Hr): 0/1
MES, animals protected/tested (MES-induced seizures [5]; 100 mg/kg, 0.5 hr): 3/3
MES, animals protected/tested (MES-induced seizures [5]; 100 mg/kg, 4.0 hr): 0/3
MES, animals protected/tested (MES-induced seizures [5]; 300 mg/kg, 0.5 Hr): 1/1
MES, animals protected/tested (MES-induced seizures [5]; 300 mg/kg, 4.0 Hr): 1/1
scMet, animals protected/tested ([6]; 3 mg/kg, 0.5 Hr): 2/4
scMet, animals protected/tested ([6]; 10 mg/kg, 0.5 Hr): 4/4
scMet, animals protected/tested ([6]; 30 mg/kg, 0.5 Hr): 1/1
scMet, animals protected/tested ([6]; 30 mg/kg, 4.0 Hr): 0/1
scMet, animals protected/tested ([6]; 100 mg/kg, 0.5 hr): 1/1
scMet, animals protected/tested ([6]; 100 mg/kg, 4.0 hr): 1/1
scMet, animals protected/tested ([6]; 300 mg/kg, 0.5 Hr): 1/1
scMet, animals protected/tested ([6]; 300 mg/kg, 4.0 Hr): 1/1
TOX (Rotorod Test), animals toxic/tested ([7]; 3 mg/kg, 0.5 Hr): 0/8
TOX (Rotorod Test), animals toxic/tested ([7]; 10 mg/kg, 0.5 Hr): 5/8^14
TOX (Rotorod Test), animals toxic/tested ([7]; 30 mg/kg, 0.5 Hr): 4/4^14
TOX (Rotorod Test), animals toxic/tested ([7]; 30 mg/kg, 4.0 Hr): 0/2
TOX (Rotorod Test), animals toxic/tested ([7]; 100 mg/kg, 0.5 hr): 8/8^14
TOX (Rotorod Test), animals toxic/tested ([7]; 100 mg/kg, 4.0 hr): 0/4
TOX (Rotorod Test), animals toxic/tested ([7]; 300 mg/kg, 0.5 Hr): 4/4^13
TOX (Rotorod Test), animals toxic/tested ([7]; 300 mg/kg, 4.0 Hr): 2/2^14
MES, animals protected/tested (MES-induced seizures [8]; 0.5 h): 0/4
MES, animals protected/tested (MES-induced seizures [8]; 1.0 h): 0/4
MES, animals protected/tested (MES-induced seizures [8]; 2.0 h): 0/4
MES, animals protected/tested (MES-induced seizures [8]; 4.0 h): 0/4
MES, animals protected/tested (MES-induced seizures [8]; […]): 0/4
scMet, animals protected/tested ([9]; 0.5 h): 1/4
scMet, animals protected/tested ([9]; 1.0 h): 0/4^5
scMet, animals protected/tested ([9]; 2.0 h): 2/4^25
scMet, animals protected/tested ([9]; 4.0 h): 0/4^5
scMet, animals protected/tested ([9]; […]): 0/4^5
Tox, animals toxic/tested ([10]; 0.5 h): 0/4
Tox, animals toxic/tested ([10]; 1.0 h): 0/4
Tox, animals toxic/tested ([10]; 2.0 h): 0/4
Tox, animals toxic/tested ([10]; 4.0 h): 0/4
Tox, animals toxic/tested ([10]; […]): 0/4
6 Hz ED50 Biological Response, protected/tested (6 Hz psychomotor seizure; 3 mg/kg): 4/8
6 Hz ED50 Biological Response, protected/tested (6 Hz psychomotor seizure; 6 mg/kg): 5/8
6 Hz ED50 Biological Response, protected/tested (6 Hz psychomotor seizure; 10 mg/kg): 8/8
ED50 (6 Hz psychomotor seizure; Mus musculus, ip, 0.5 h, read-out: ED50 (6 Hz)): 3.98 mg/kg

O=C(OCC(F)(F)F)c1ncn2c1CN=C(c1ccccc1)c1cc(Br)ccc1-2
melting point: 202 to 204 °C

CCOC(=O)c1ncn2c1CN=C(c1ccccc1)c1cc(Cl)ccc1-2
melting point: 174 to 175 °C

C#Cc1ccc2c(c1)C(c1ccccn1)=NCc1c(C(=O)O)ncn1-2 [HZ-166 acid]
HZ-166 acid, plasma average with outliers excluded ([11]; Group 1 (five days dosing of HZ-166)): 9.03 nmol/mL
Conc HZ-166 acid in plasma, individual subjects ([11]; Group 1: HZ-166 35.5 mg/kg ip for five days, blood after test on day 5): 2910 ng/mL and 2570 ng/mL and 3430 ng/mL and 2830 ng/mL and BLQ < (1.00) ng/mL and 3780 ng/mL and 3310 ng/mL and 1900 ng/mL
HZ-166 acid, plasma average with outliers excluded ([11]; Group 2 (HZ-166 on day 5 only)): 8.72 nmol/mL
Conc HZ-166 acid in plasma, individual subjects ([11]; Group 2: HZ-166 35.5 mg/kg ip on day 5 only): 3270 ng/mL and 2180 ng/mL and 167 ng/mL and 3120 ng/mL and 3100 ng/mL and 3690 ng/mL and 2590 ng/mL and 2080 ng/mL

C[Si](C)(C)C#Cc1ccc2c(c1)C(c1ccccc1)=NCc1c(C(=O)OCC(F)(F)F)ncn1-2
melting point: 107 to 110 °C

CCOC(=O)c1ncn2c1CN=C(c1ccccn1)c1cc(C#C[Si](C)(C)C)ccc1-2
melting point: 205 to 206 °C

CC(C)(C)OC(=O)c1ncn2c1CN=C(c1ccccc1)c1cc(Br)ccc1-2
melting point: 222 to 223 °C
